Measured values reported in patent publication US20120195860A1, “LATENT NEURAL STEM CELL POPULATION” (priority 2007, published 2012).
Counter-ions that a name gives are not always drawn.

Key:
[1] = test system: hippocampal precursors of mice that underwent SE; experiment: hippocampal neurosphere assay after status epilepticus in vivo; set-up: species or system mouse
Procedure: Seizures were induced in 6-8 week old C57BL/6 male mice by the administration of pilocarpine, a muscarinic cholinergic agonist. Thirty minutes prior to pilocarpine administration, the mice were injected with 2.5 mg/kg of the cholinergic antagonist scopolamine methyl nitrate (Sigma-Aldrich) to reduce peripheral cholinergic effects. They then received intraperitoneal injections of 350 mg/kg pilocarpine hydrochloride (Sigma-Aldrich). […] Seizures were stopped 2 hours after status epilepticus onset, with an intraperitoneal injection of 5 mg/kg diazepam (Patulin, Parnell Laboratories Sydney, Australia).
In addition we observed that extended depolarization, between 24 and 48 hours exposure to high level of KCl is required for the stimulation to occur in WT hippocampus confirming the need for prolonged depolarization.

cortical cells = experiment: primary neurosphere culture, cortex; type: cell-based, mouse; settings: depolarization (potassium)
Procedure: Adult (6-8 week old) male C57/B16 mice were killed by cervical dislocation, their brains immediately removed and the hippocampus, SVZ, olfactory bulb or cortex dissected. The tissue was enzymatically digested with 0.1% trypsin-EDTA (Gibco/Invitrogen, Eugene, Oreg.) for 7 minutes at 37° C., followed by a wash with 0.014% w/v trypsin inhibitor (type I-S from soybean; Sigma-Aldrich. Australia, Sydney, Australia) dissolved in Hepes-buffered minimum essential medium (HEM), which consisted of minimum essential medium (Gibco/Invitrogen) supplemented with 16 mM HEPES (Sigma-Aldrich Australia) and 100 units/ml penicillin/streptomycin (Gibco/Invitrogene). The tissue was centrifuged at 100 rcf for 7 minutes, following which the pellet was resuspended in 1 ml neurosphere growth medium, mechanically triturated until smooth, then filtered through a 40 μm cell sieve (Falcon/BD Biosciences Australia, North Ryde, Australia). […]
The neurosphere growth medium already contained 4.18 mM KCl. […] The primary neurospheres were then counted and collected for passaging or differentiation. Results of the neurosphere counts were expressed as mean ± standard error and statistical analysis was performed using a standard t-Test (two sample assuming equal variance).

[2] = test system: cells derived from the spinal cord; experiment: activation of cells derived from the spinal cord; type: cell-based; settings: KCl
[3] = test system: 33 week HD hippocampal precursors; experiment: hippocampal neurosphere assay, Huntington's disease R6/1 mice; type: cell-based, mouse; settings: 33 week old HD mice
Excerpt: R6/1 (B6CBA-TgN(HDexon1)61 Gpb/Pan) mice were originally obtained from Jackson Laboratory (Bar Harbor, Me.) and maintained by backcrossing to CBB6F1 females. For the neurosphere assays we used HD exon 1 carriers (R6/1) and aged matched wild-type littermates. Huntington's Disease is a neurodegenerative disorder that affects the striatum and cortex as well as hippocampus (Murphy et al., 2000). Previous studies have shown that older symptomatic R6/1 transgenic mice have a significant decrease in cell proliferation in the hippocampus compared to wild-type mice whereas younger pre-symptomatic R6/1 and WT mice had similar levels of proliferation (Lazic et al., 2004). […] We observed a decrease in the total number of hippocampal neuroapheres with age in WT mice that was not observed in HD mice.

[4] = test system: DCX+ve / DCX-ve and PNA positive adult hippocampal cells; experiment: neurosphere assay on sorted hippocampal cells (DCX-GFP FACS, PNA binding); type: cell-based, mouse
Procedure: E14, P2 and adult brains were collected as described above and processed either whole or dissected into specific regions (olfactory bulb, cortex, cerebellum and subventricular zone (SVZ)). GFP+ve cells were separated by fluorescence-activated cell sorting (FACS) using a FACS Vantage cell sorter (BD Biosciences). A wild-type littermate control was used to determine background fluorescence levels. For primary neurosphere cultures the cells were plated at a density of 500 cells/well in 96-well plates (Falcon/BD Biosciences, San Jose, Calif.) with 0.2 ml complete medium per well. […] The primary neurospheres were then counted and collected for passaging or differentiation. Results of the neurosphere counts were expressed as mean + or − standard error and statistical analysis was performed using a standard t-Test (two sample assuming equal variance).
Mice in which the green fluorescent protein (GFP) is driven by the Doublecortin (DCX) promoter (DCX-GFP) were used for the separation of DCX^+ve cells. […] DCX-GFP^+ve and DCX-GFP^−ve cells were separated by fluorescence-activated cell sorting (FACS) using a FACS Vantage cell sorter (BD Biosciences) as described (see above). A wild-type littermate control was used to determine background fluorescence levels. Potassium was added to DCX^+ve and DCX^−ve cells at a final concentration of 15 mM and the number of neurospheres counted after 10 days.

[5] = test system: adult mouse hippocampal cells; experiment: primary neurosphere culture, hippocampus; type: cell-based
Procedure: Adult (6-8 week old) male C57/B16 mice were killed by cervical dislocation, their brains immediately removed and the hippocampus, SVZ, olfactory bulb or cortex dissected. The tissue was enzymatically digested with 0.1% trypsin-EDTA (Gibco/Invitrogen, Eugene, Oreg.) for 7 minutes at 37° C., followed by a wash with 0.014% w/v trypsin inhibitor (type I-S from soybean; Sigma-Aldrich. Australia, Sydney, Australia) dissolved in Hepes-buffered minimum essential medium (HEM), which consisted of minimum essential medium (Gibco/Invitrogen) supplemented with 16 mM HEPES (Sigma-Aldrich Australia) and 100 units/ml penicillin/streptomycin (Gibco/Invitrogene). The tissue was centrifuged at 100 rcf for 7 minutes, following which the pellet was resuspended in 1 ml neurosphere growth medium, mechanically triturated until smooth, then filtered through a 40 μm cell sieve (Falcon/BD Biosciences Australia, North Ryde, Australia). The neurosphere growth medium consisted of mouse NeuroCult™ NSC Basal Medium plus mouse NeuroCult™ NSC Proliferation Supplements (StemCell Technologies, Vancouver, Canada) with 2% bovine serum albumin (Roche, Basel, Switzerland) and 2 μg/ml heparin (Sigma-Aldrich Australia). […]

SMILES	activation of latent hippocampal population by induced seizures ([1]; injections of pilocarpine hydrochloride, FIG. 8A)	further stimulation of precursors from SE mice by depolarizing potassium ([1]; SE at least 2 hours, sacrificed after 48 hours, potassium added in vitro)	increase in neurosphere number in cortex (cortical cells)	activation of spinal cord derived cells [2]	further increase of HD hippocampal precursors by potassium depolarization in vitro [3]	response of DCX-ve vs DCX+ve population to high levels of potassium ([4]; 15 mM potassium, 10 days)	activation of PNA positive population ([4]; adult hippocampal cells separated by peanut agglutinin binding)	increase in number of neurospheres, stimulated compared to control ([5]; 18 month old hippocampus, depolarizing conditions)	formation of large neurospheres ([5]; potassium-induced depolarization, hippocampus)
CC[C@@H]1C(=O)OC[C@@H]1Cc1cncn1C [pilocarpine hydrochloride]	activation								
[Cl-].[K+] [KCl, potassium chloride]		no further stimulatory effect	over 3 fold	activation	could not be further increased	it is this population, and not the DCX^+ve population, that responds	activated	over 12 fold	stimulates the formation of increased numbers of large neurospheres
